The subject of one data set is β-hematin (βH) formation. In words: NP-40 detergent mediated β-hematin inhibition assay. The format is biochemical. The settings on record: read-out: βH inhibition IC50; NP-40 assay.
The subject of data set [1] is NF54 strain of P. falciparum. In words: Parasite growth inhibition, CQ-sensitive NF54 strain. Type of data set: cell-based, Plasmodium falciparum.
Data set [2] concerns D10 strain of P. falciparum. In words: Parasite growth inhibition, CQ-sensitive D10 strain. Type of data set: cell-based, Plasmodium falciparum.
Data set [3] is described as follows: Association constant with Fe. Type of data set: binding. The note with it: for logK (association constant with Fe(III)PPIX): 1:1 complex, 7.5 μM hematin, 40% v/v DMSO, pH 7.5; for Binding constant ratio relative to 12c (K/K12c): from logK values.
The conditions of data set [4]: 1:1 complex, 40% DMSO; cited from earlier work.
Data set [5] relates to parasitized erythrocyte, CQ-sensitive D10 strain. In words: Inoculum effect measurement of cellular accumulation. The format is cell-based, Plasmodium falciparum. The note with it: IC50 vs initial parasitemia.
The nature of the next data set: Kinetic solubility. The settings on record: for Kinetic solubility FaSSIF / Kinetic solubility pH 6.5: pH 6.5.
Data set [6] can be described thus: In vitro metabolic stability, human liver microsomes. A general note: Liver microsomes are a subcellular fraction often used to study metabolism.
The nature of data set [7]: In vitro metabolic stability, rat liver microsomes.
Data set [8] is described as follows: In vitro metabolic stability, mouse liver microsomes.
In the next data set the test system is K1 CQ-resistant strain. The note with it: read-out: K1 parasite IC50.
Data set [9] relates to Chinese hamster ovarian (CHO) cell line. The settings on record: read-out: CHO IC50.
Data set [10] has as its system D6 strain of P. falciparum. The settings on record: read-out: parasite activity against the D6 strain, HTS; cited from earlier work.
[11] abbreviates: read-out: NF54 parasite IC50, CQ-sensitive NF54 strain.
Setting [12] is: read-out: D10 parasite IC50, CQ-sensitive D10 strain.

Here are results for 19 compounds from publication PMC4945415 (Journal of medicinal chemistry, 2016).

Where two headings read alike, the source gives them in different places. Marks after values point to notes of the source that are not given here.

For “5-(tert-Butyl)-N,N-di(pyridin-4-yl)isophthalamide [Compound 15h]”, the IC50 in the data set with β-hematin (βH) formation came out at 13.3 ± 0.7 µM; in [1] (setting [11]), 1.6 ± 0.2 µM.

As for `O=C(Nc1ccccc1)c1cc(C(=O)Nc2nc3ccccc3[nH]2)cc([N+](=O)[O-])c1` [Compound 18, N^1-(1H-Benzo[d]imidazol-2-yl)-5-nitro-N^3-phenylisophthalamide], the IC50 in data set [1] (Plasmodium falciparum, NF54, read-out: parasite activity (maximum dose concentration)) was above 249 µM.

Turning to “5-Nitro-N,N-di(pyridin-3-yl)isophthalamide [Compound 15b]”, the IC50 with β-hematin (βH) formation was 4.7 ± 0.7 µM; in [1] (setting [11]), 1.32 ± 0.04 µM.

For the compound “5-Cyano-N,N-diphenylisophthalamide [Compound 15e]”, the IC50 in the data set on β-hematin (βH) formation turned out to be 4.4 ± 0.2 µM; in data set [2] (setting [12]) it was 5.2 µM.

Take “5-Methoxy-N,N-diphenylisophthalamide [Compound 15n]”: the IC50 in the data set on β-hematin (βH) formation was above 1000 µM; in [1] (setting [11]), 37 ± 13 µM.

Turning to “N,N-Di(pyridin-4-yl)isophthalamide [Compound 15k]”, the results for the IC50 (with β-hematin (βH) formation; in [1] (setting [11])) were 507 ± 33 µM and 9 ± 4 µM, respectively.

In the case of “5-Methyl-N,N-di(pyridin-4-yl)isophthalamide [Compound 15f]”, the IC50 came out at 8 ± 1 µM in the data set with β-hematin (βH) formation and 2.5 ± 0.6 µM in data set [1] (setting [11]). Also, in data set [3], the “logK (association constant with Fe(III)PPIX)” value (“logK” below) came out at 3.92 ± 0.21. Further, the “Binding constant ratio relative to 12c (K/K12c)” value in data set [3] was 5.24.

For the compound “5-(tert-Butyl)-N,N-diphenylisophthalamide [Compound 15j]”, the IC50 in the data set on β-hematin (βH) formation is above 1000 µM; in data set [1] (setting [11]) it was 8.1 ± 0.5 µM.

For “5-Nitro-N,N-diphenylisophthalamide [Compound 15c]”, the IC50 in the data set on β-hematin (βH) formation turned out to be 7 ± 0.2 µM; in [1] (setting [11]), 1.4 ± 0.2 µM.

For `CCN(CC)CCCC(C)Nc1ccnc2cc(Cl)ccc12` (stereo not shown) [CQ, chloroquine, reference compound], the IC50 in data set [2] (Plasmodium falciparum, D10, read-out: D10 parasite IC50) worked out at 0.021 ± 0.002 µM; in data set [1] (Plasmodium falciparum, NF54, read-out: NF54 parasite IC50) it was 0.008 ± 0.002 µM. The “logK” value in [4] is listed as 5.52 ± 0.03 ^a.

On to “5-Cyano-N,N-di(pyridin-4-yl)isophthalamide [Compound 15d]”, for which the values for the IC50 (with β-hematin (βH) formation; in data set [2] (setting [12]); in data set [1] (setting [11])) were 6.34 ± 0.09 µM, 2 ± 0.2 µM and 1.9 ± 0.2 µM, respectively.

Turning to “5-Methoxy-N,N-di(pyridin-4-yl)isophthalamide [Compound 15m]”, the IC50 was found to be 22 ± 1 µM in the data set with β-hematin (βH) formation and 3 ± 0.5 µM in data set [1] (setting [11]).

Take “N,N-Diphenylpyridine-2,6-dicarboxamide [Compound 15p]”: the IC50 in the data set with β-hematin (βH) formation is above 1000 µM; in data set [1] (setting [11]), above 315 µM.

With “N,N-bis(4-((Dimethylamino)methyl)phenyl)-5-nitroisophthalamide [Compound 17]”, the figures for the IC50 (in the data set on β-hematin (βH) formation; in data set [1] (setting [11])) were 7.9 ± 0.2 µM and 1.5 ± 0.2 µM, respectively. The “inoculum effect / cellular accumulation” value in data set [5] is “insignificant inoculum effect”.

As for `O=C(Nc1ccncc1)c1cc([N+](=O)[O-])cc([N+](=O)[O-])c1` [Compound 12c, 3,5-Dinitro-N-(pyridin-4-yl)benzamide], in data set [3], the “logK” value stood at 3.20 ± 0.36 and the “Binding constant ratio relative to 12c (K/K12c)” value was found to be 1.

For the compound “5-(tert-Butyl)-N,N-di(pyridin-3-yl)isophthalamide [Compound 15i]”, the IC50 came to 6.8 ± 0.1 µM with β-hematin (βH) formation; 0.7 ± 0.1 µM in [2] (setting [12]); 0.6 ± 0.1 µM in data set [1] (setting [11]); 1.7 ± 0.4 µM in the data set on K1 CQ-resistant strain; 185 µM in data set [9]. Moreover, the “Kinetic solubility FaSSIF” value in the data set “Kinetic solubility” came to 153.6 µM. For the same compound, in “Kinetic solubility”, the “Kinetic solubility pH 2” value amounted to 197.2 μM. Moreover, the “Kinetic solubility pH 6.5” value in “Kinetic solubility” turned out to be 92.7 μM. The Degradation half-life in data set [6] was 2.365 h; in [7] it was 1.55 h; in [8], 0.873 h. The “Hepatic extraction (EH)” value in data set [6] was found to be 0.4; in data set [7], 0.4; in data set [8], 0.6. For the same compound, the In vitro clearance is on record as 14.1 μL/min/mg protein in data set [6], 33.5 μL/min/mg protein in data set [7] and 130.3 μL/min/mg protein in data set [8].

Turning to “5-Nitro-N,N-di(pyridin-4-yl)isophthalamide [Compound 15a]”, the IC50 in [10] is 0.19 µM; in the data set with β-hematin (βH) formation it was 4.3 ± 0.1 µM; in [2] (setting [12]) it was 0.9 ± 0.1 µM; in data set [1] (setting [11]), 0.7 ± 0.2 µM; in data set [9], above 275 µM. For the same compound, the “Kinetic solubility FaSSIF” value in “Kinetic solubility” amounted to 13 µM. In the data set “Kinetic solubility”, the “Kinetic solubility pH 2” value is listed as 199.7 μM. Further, in “Kinetic solubility”, the “Kinetic solubility pH 6.5” value is reported as below 5 μM. For the same compound, the “inoculum effect / cellular accumulation” value in data set [5] was “larger accumulation ratios”. For the same compound, the Degradation half-life in [6], in data set [7] and in data set [8] was above 2.5 h each time. Moreover, the figures for the “Hepatic extraction (EH)” value in [6], in data set [7] and in data set [8] were below 0.42, below 0.30 and below 0.33, respectively. The In vitro clearance in data set [6], in data set [7] and in [8] was below 11.6 μL/min/mg protein in each case.

Consider “N,N-Di(pyridin-4-yl)pyridine-2,6-dicarboxamide [Compound 15o]”, for which the results for the IC50 (in the data set with β-hematin (βH) formation; in [1] (setting [11])) were 260 ± 7 µM and above 315 µM, respectively.

Take “5-Methyl-N,N-diphenylisophthalamide [Compound 15g]”: the IC50 in the data set with β-hematin (βH) formation is above 1000 µM; in data set [1] (setting [11]), 146 ± 1 µM.
